# Measured values published in ChEMBL document CHEMBL1806468, “A facile synthesis of 1,5-disubstituted-2-aminoimidazoles: antibiotic activity of a first generation library” (2011).
# The source made the active and inactive calls. No cut-off for these calls is given here.
# Legend:
# Escherichia coli [1] = experiment: Antimicrobial activity against Escherichia coli ATCC 35695 after 16 hrs by broth microdilution method; type: functional; conditions: ATCC 35695, 16 h
# [2] = system: Staphylococcus epidermidis; experiment: Antimicrobial activity against Staphylococcus epidermidis ATCC 29886 after 16 hrs by broth microdilution method; type: functional; conditions: ATCC 29886, 16 h
# Staphylococcus aureus [3] = experiment: Antimicrobial activity against methicillin-resistant Staphylococcus aureus BAA-44 after 16 hrs by broth microdilution method; type: functional; conditions: BAA-44, 16 h
# Klebsiella pneumoniae = experiment: Antimicrobial activity against carbapenem-resistant Klebsiella pneumoniae BAA-2146 expressing […] gene after 16 hrs by broth microdilution method; type: functional; conditions: BAA-2146, 16 h
# Staphylococcus aureus [4] = experiment: Antimicrobial activity against methicillin-susceptible Staphylococcus aureus ATCC 29213 after 16 hrs by broth microdilution method; type: functional; conditions: ATCC 29213, 16 h
# Acinetobacter baumannii [5] = experiment: Antimicrobial activity against multidrug-resistant Acinetobacter baumannii BAA-1605 after 16 hrs by broth microdilution method; type: functional; conditions: BAA-1605, 16 h
# [6] = system: Staphylococcus epidermidis; experiment: Antimicrobial activity against methicillin-resistant Staphylococcus epidermidis ATCC 51625 after 16 hrs by broth microdilution method; type: functional; conditions: ATCC 51625, 16 h
# Acinetobacter baumannii [7] = experiment: Antimicrobial activity against Acinetobacter baumannii ATCC 19606 after 16 hrs by broth microdilution method; type: functional; conditions: ATCC 19606 = CIP 70.34 = JCM 6841, 16 h
# Acinetobacter baumannii [8] = experiment: Inhibition of Acinetobacter baumannii BAA-1605 biofilm formation after 24 hrs by crystal violet reporter assay; type: functional; for INH: test concentration or dose not given here
# Escherichia coli [9] = experiment: Inhibition of Escherichia coli ATCC 35695 biofilm formation after 24 hrs by crystal violet reporter assay; type: functional; note: test concentration or dose not given here
# Acinetobacter baumannii [10] = experiment: Inhibition of Acinetobacter baumannii ATCC 19606 biofilm formation after 24 hrs by crystal violet reporter assay; type: functional, ATCC 19606 = CIP 70.34 = JCM 6841; note: test concentration or dose not given here
# Staphylococcus aureus [11] = experiment: Inhibition of Staphylococcus aureus ATCC 29213 biofilm formation after 24 hrs by crystal violet reporter assay; type: functional; note: test concentration or dose not given here
# Staphylococcus aureus [12] = experiment: Inhibition of Staphylococcus aureus BAA-44 biofilm formation after 24 hrs by crystal violet reporter assay; type: functional; note: test concentration or dose not given here
compound,measurement,setting,value
CCCCCCCCn1c(-c2ccccc2)cnc1N.Cl,MIC,Escherichia coli [1],64 mg/L
same,MIC,[2],16 mg/L
same,MIC,Staphylococcus aureus [3],64 mg/L
same,MIC,Klebsiella pneumoniae,128 mg/L
same,MIC,Staphylococcus aureus [4],64 mg/L
same,MIC,Acinetobacter baumannii [5],64 mg/L
same,MIC,[6],64 mg/L
same,MIC,Acinetobacter baumannii [7],16 mg/L
CC(C)Cc1cnc(N)n1CCCc1ccccc1.Cl,MIC,Escherichia coli [1],16 mg/L
same,inhibition (INH),Acinetobacter baumannii [8],97%
same,MIC,[2],4 mg/L
same,MIC,Staphylococcus aureus [3],32 mg/L
same,inhibition (INH),Escherichia coli [9],92%
same,inhibition (INH),Acinetobacter baumannii [10],96%
same,inhibition (INH),Staphylococcus aureus [11],87%
same,MIC,Klebsiella pneumoniae,128 mg/L
same,MIC,Staphylococcus aureus [4],64 mg/L
same,inhibition (INH),Staphylococcus aureus [12],96%
same,MIC,Acinetobacter baumannii [5],32 mg/L
same,MIC,[6],32 mg/L
same,MIC,Acinetobacter baumannii [7],32 mg/L
CCCCCCCCn1c(CC(C)C)cnc1N.Cl,MIC,Escherichia coli [1],2 mg/L
same,inhibition (INH),Acinetobacter baumannii [8],96%
same,MIC,[2],2 mg/L
same,MIC,Staphylococcus aureus [3],8 mg/L
same,inhibition (INH),Escherichia coli [9],88%
same,inhibition (INH),Acinetobacter baumannii [10],97%
same,inhibition (INH),Staphylococcus aureus [11],93%
same,MIC,Klebsiella pneumoniae,64 mg/L
same,MIC,Staphylococcus aureus [4],16 mg/L
same,inhibition (INH),Staphylococcus aureus [12],97%
same,MIC,Acinetobacter baumannii [5],16 mg/L
same,MIC,[6],8 mg/L
same,MIC,Acinetobacter baumannii [7],16 mg/L
Cl.Nc1ncc(Cc2ccccc2)n1Cc1ccccc1,MIC,Escherichia coli [1],128 mg/L
same,MIC,[2],128 mg/L
same,MIC,Staphylococcus aureus [3],> 128 mg/L
same,MIC,Klebsiella pneumoniae,> 128 mg/L
same,MIC,Staphylococcus aureus [4],> 128 mg/L
same,MIC,Acinetobacter baumannii [5],> 128 mg/L
same,MIC,[6],128 mg/L
same,MIC,Acinetobacter baumannii [7],> 128 mg/L
Cl.Nc1ncc(Cc2ccccc2)n1CCCc1ccccc1,MIC,Escherichia coli [1],32 mg/L
same,inhibition (INH),Acinetobacter baumannii [8],94%
same,MIC,[2],16 mg/L
same,MIC,Staphylococcus aureus [3],32 mg/L
same,inhibition (INH),Escherichia coli [9],97%
same,inhibition (INH),Acinetobacter baumannii [10],96%
same,inhibition (INH),Staphylococcus aureus [11],98%
same,MIC,Klebsiella pneumoniae,128 mg/L
same,MIC,Staphylococcus aureus [4],32 mg/L
same,inhibition (INH),Staphylococcus aureus [12],90%
same,MIC,Acinetobacter baumannii [5],32 mg/L
same,MIC,[6],16 mg/L
same,MIC,Acinetobacter baumannii [7],32 mg/L
CC(C)Cc1cnc(N)n1Cc1ccccc1.Cl,MIC,Escherichia coli [1],128 mg/L
same,MIC,[2],16 mg/L
same,MIC,Staphylococcus aureus [3],128 mg/L
same,MIC,Klebsiella pneumoniae,128 mg/L
same,MIC,Staphylococcus aureus [4],128 mg/L
same,MIC,Acinetobacter baumannii [5],128 mg/L
same,MIC,[6],128 mg/L
same,MIC,Acinetobacter baumannii [7],128 mg/L
Cl.Nc1ncc(-c2ccccc2)n1Cc1ccccc1,MIC,Escherichia coli [1],8 mg/L
same,inhibition (INH),Acinetobacter baumannii [8],97%
same,MIC,[2],2 mg/L
same,MIC,Staphylococcus aureus [3],4 mg/L
same,inhibition (INH),Escherichia coli [9],89%
same,inhibition (INH),Acinetobacter baumannii [10],96%
same,inhibition (INH),Staphylococcus aureus [11],93%
same,MIC,Klebsiella pneumoniae,128 mg/L
same,MIC,Staphylococcus aureus [4],8 mg/L
same,inhibition (INH),Staphylococcus aureus [12],95%
same,MIC,Acinetobacter baumannii [5],16 mg/L
same,MIC,[6],8 mg/L
same,MIC,Acinetobacter baumannii [7],128 mg/L
CCCCCn1c(-c2ccccc2)cnc1N.Cl,MIC,Escherichia coli [1],128 mg/L
same,MIC,[2],16 mg/L
same,MIC,Staphylococcus aureus [3],64 mg/L
same,MIC,Klebsiella pneumoniae,> 128 mg/L
same,MIC,Staphylococcus aureus [4],64 mg/L
same,MIC,Acinetobacter baumannii [5],64 mg/L
same,MIC,[6],128 mg/L
same,MIC,Acinetobacter baumannii [7],64 mg/L
CCCCCCCCn1c(Cc2ccccc2)cnc1N.Cl,MIC,Escherichia coli [1],128 mg/L
same,MIC,[2],128 mg/L
same,MIC,Staphylococcus aureus [3],128 mg/L
same,MIC,Klebsiella pneumoniae,> 128 mg/L
same,MIC,Staphylococcus aureus [4],128 mg/L
same,MIC,Acinetobacter baumannii [5],128 mg/L
same,MIC,[6],128 mg/L
same,MIC,Acinetobacter baumannii [7],128 mg/L
Cl.Nc1ncc(-c2ccccc2)n1CCCc1ccccc1,MIC,Escherichia coli [1],32 mg/L
same,inhibition (INH),Acinetobacter baumannii [8],97%
same,MIC,[2],8 mg/L
same,MIC,Staphylococcus aureus [3],32 mg/L
same,inhibition (INH),Escherichia coli [9],94%
same,inhibition (INH),Acinetobacter baumannii [10],97%
same,inhibition (INH),Staphylococcus aureus [11],95%
same,MIC,Klebsiella pneumoniae,128 mg/L
same,MIC,Staphylococcus aureus [4],32 mg/L
same,inhibition (INH),Staphylococcus aureus [12],94%
same,MIC,Acinetobacter baumannii [5],32 mg/L
same,MIC,[6],32 mg/L
same,MIC,Acinetobacter baumannii [7],32 mg/L
CCCCCCCCCCCCn1c(CCCCCC)cnc1N.Cl,MIC,Escherichia coli [1],2 mg/L
same,MIC,[2],0.5 mg/L
same,MIC,Staphylococcus aureus [3],2 mg/L
same,MIC,Klebsiella pneumoniae,> 128 mg/L
same,MIC,Staphylococcus aureus [4],2 mg/L
same,MIC,Acinetobacter baumannii [5],> 128 mg/L
same,MIC,[6],1 mg/L
same,MIC,Acinetobacter baumannii [7],64 mg/L
CCCCCn1c(CC(C)C)cnc1N.Cl,MIC,Escherichia coli [1],64 mg/L
same,MIC,[2],32 mg/L
same,MIC,Staphylococcus aureus [3],128 mg/L
same,MIC,Klebsiella pneumoniae,128 mg/L
same,MIC,Staphylococcus aureus [4],> 128 mg/L
same,MIC,Acinetobacter baumannii [5],64 mg/L
same,MIC,[6],128 mg/L
same,MIC,Acinetobacter baumannii [7],64 mg/L
CCCCCCc1cnc(N)n1CCCCC.Cl,MIC,Escherichia coli [1],32 mg/L
same,inhibition,Acinetobacter baumannii [8],inactive
same,MIC,[2],8 mg/L
same,MIC,Staphylococcus aureus [3],32 mg/L
same,inhibition (INH),Escherichia coli [9],97%
same,inhibition (INH),Acinetobacter baumannii [10],97%
same,inhibition (INH),Staphylococcus aureus [11],92%
same,MIC,Klebsiella pneumoniae,64 mg/L
same,MIC,Staphylococcus aureus [4],32 mg/L
same,inhibition (INH),Staphylococcus aureus [12],98%
same,MIC,Acinetobacter baumannii [5],64 mg/L
same,MIC,[6],32 mg/L
same,MIC,Acinetobacter baumannii [7],64 mg/L
CCCCCn1c(Cc2ccccc2)cnc1N.Cl,MIC,Escherichia coli [1],64 mg/L
same,MIC,[2],32 mg/L
same,MIC,Staphylococcus aureus [3],128 mg/L
same,MIC,Klebsiella pneumoniae,128 mg/L
same,MIC,Staphylococcus aureus [4],64 mg/L
same,MIC,Acinetobacter baumannii [5],64 mg/L
same,MIC,[6],64 mg/L
same,MIC,Acinetobacter baumannii [7],64 mg/L
Cl.Nc1ncc(CCCCNC(=O)OCc2ccccc2)n1Cc1ccccc1,MIC,Escherichia coli [1],64 mg/L
same,MIC,[2],32 mg/L
same,MIC,Staphylococcus aureus [3],32 mg/L
same,MIC,Klebsiella pneumoniae,128 mg/L
same,MIC,Staphylococcus aureus [4],32 mg/L
same,MIC,Acinetobacter baumannii [5],64 mg/L
same,MIC,[6],32 mg/L
same,MIC,Acinetobacter baumannii [7],64 mg/L
CCCCCCc1cnc(N)n1Cc1ccccc1.Cl,MIC,Escherichia coli [1],32 mg/L
same,MIC,[2],16 mg/L
same,MIC,Staphylococcus aureus [3],32 mg/L
same,MIC,Klebsiella pneumoniae,64 mg/L
same,MIC,Staphylococcus aureus [4],16 mg/L
same,MIC,Acinetobacter baumannii [5],16 mg/L
same,MIC,[6],16 mg/L
same,MIC,Acinetobacter baumannii [7],16 mg/L
CCCCCn1c(CCCCNC(=O)OCc2ccccc2)cnc1N.Cl,MIC,Escherichia coli [1],32 mg/L
same,MIC,[2],16 mg/L
same,MIC,Staphylococcus aureus [3],128 mg/L
same,MIC,Klebsiella pneumoniae,> 128 mg/L
same,MIC,Staphylococcus aureus [4],32 mg/L
same,MIC,Acinetobacter baumannii [5],128 mg/L
same,MIC,[6],64 mg/L
same,MIC,Acinetobacter baumannii [7],128 mg/L
CCCCCCCCn1c(CCCCNC(=O)OCc2ccccc2)cnc1N.Cl,MIC,Escherichia coli [1],8 mg/L
same,inhibition (INH),Acinetobacter baumannii [8],91%
same,MIC,[2],2 mg/L
same,MIC,Staphylococcus aureus [3],16 mg/L
same,inhibition (INH),Escherichia coli [9],90%
same,inhibition (INH),Acinetobacter baumannii [10],93%
same,inhibition (INH),Staphylococcus aureus [11],91%
same,MIC,Klebsiella pneumoniae,128 mg/L
same,MIC,Staphylococcus aureus [4],16 mg/L
same,inhibition (INH),Staphylococcus aureus [12],84%
same,MIC,Acinetobacter baumannii [5],64 mg/L
same,MIC,[6],16 mg/L
same,MIC,Acinetobacter baumannii [7],64 mg/L
Cl.Nc1ncc(CCCCNC(=O)OCc2ccccc2)n1CCCc1ccccc1,MIC,Escherichia coli [1],64 mg/L
same,MIC,[2],16 mg/L
same,MIC,Staphylococcus aureus [3],16 mg/L
same,MIC,Klebsiella pneumoniae,128 mg/L
same,MIC,Staphylococcus aureus [4],16 mg/L
same,MIC,Acinetobacter baumannii [5],32 mg/L
same,MIC,[6],16 mg/L
same,MIC,Acinetobacter baumannii [7],32 mg/L
CCCCCCCCCCn1c(CCCCCC)cnc1N.Cl,MIC,Escherichia coli [1],1 mg/L
same,inhibition (INH),Acinetobacter baumannii [8],97%
same,MIC,[2],0.25 mg/L
same,MIC,Staphylococcus aureus [3],1 mg/L
same,inhibition (INH),Escherichia coli [9],59%
same,inhibition (INH),Acinetobacter baumannii [10],91%
same,inhibition (INH),Staphylococcus aureus [11],73%
same,MIC,Klebsiella pneumoniae,32 mg/L
same,MIC,Staphylococcus aureus [4],1 mg/L
same,inhibition (INH),Staphylococcus aureus [12],83%
same,MIC,Acinetobacter baumannii [5],8 mg/L
same,MIC,[6],1 mg/L
same,MIC,Acinetobacter baumannii [7],8 mg/L
CCCCCCc1cnc(N)n1CCCc1ccccc1.Cl,MIC,Escherichia coli [1],8 mg/L
same,inhibition (INH),Acinetobacter baumannii [8],98%
same,MIC,[2],4 mg/L
same,MIC,Staphylococcus aureus [3],8 mg/L
same,inhibition (INH),Escherichia coli [9],94%
same,inhibition (INH),Acinetobacter baumannii [10],96%
same,inhibition (INH),Staphylococcus aureus [11],98%
same,MIC,Klebsiella pneumoniae,64 mg/L
same,MIC,Staphylococcus aureus [4],8 mg/L
same,inhibition (INH),Staphylococcus aureus [12],91%
same,MIC,Acinetobacter baumannii [5],32 mg/L
same,MIC,[6],16 mg/L
same,MIC,Acinetobacter baumannii [7],16 mg/L
CCCCCCCCn1c(CCCCCC)cnc1N.Cl,MIC,Escherichia coli [1],2 mg/L
same,MIC,[2],0.125 mg/L
same,MIC,Staphylococcus aureus [3],2 mg/L
same,MIC,Klebsiella pneumoniae,32 mg/L
same,MIC,Staphylococcus aureus [4],2 mg/L
same,MIC,Acinetobacter baumannii [5],8 mg/L
same,MIC,[6],2 mg/L
same,MIC,Acinetobacter baumannii [7],8 mg/L
